Laboratory results from paper PMC11648915, “Identification and development of TRPM4 antagonists to counteract neuronal excitotoxicity” (iScience, 2024).
“Also recorded” adds a separate entry of the source. Like-named read-outs stand apart in the source and are kept apart here.

Experiments:
[1] = In vivo pharmacokinetics after single i.p. or i.v. dose; conditions: female, C57BL/6J, mouse
Description: Next, to assess in vivo availability of the Series 1–3 compounds, we evaluated drug metabolism and pharmacokinetics (DMPK). We measured compound concentrations in plasma, heart, and brain at several time points after intraperitoneal (i.p.) or intravenous (i.v.) single-dose injections.
Half-life and bioavailability were calculated by noncompartmental analysis using the R package PK[84] (v1.3-6).

human TRPM4 [2] = biological target: T1, human TRPM4 (Homo sapiens, UniProt Q8TD43); experiment: Inside-out patch clamp, human TRPM4; format: cell-based; set-up: Human TRPM4 (UniProtKB: Q8TD43-1) and mouse Trpm4 (UniProtKB: Q7TN37-1) were amplified via PCR; expressed in transfected cells; conditions: inside-out patch clamp configuration
Description: Patch clamp recordings were conducted using an EPC10 patch clamp amplifier and Patchmaster software (HEKA, Germany). An Ag/AgCl wire served as the reference electrode in all experiments. […] Liquid junction potential was compensated before achieving gigaseal formation. All experiments were conducted at room temperature. Whole-cell currents were recorded in transiently transfected HEK293 cells expressing either wildtype human TRPM4, TRPM4-L907A, or TRPM4-S924A. Recordings involved a 400 ms increasing voltage ramp from –100 mV to +100 mV, initiated from a holding potential of 0 mV. The interval between each sweep was 2 seconds, with data sampled at 5 kHz. […] To identify TRPM4 currents, extracellular Na^+ was replaced with equimolar NMDG^+. […] Similar to whole-cell recordings, a 400 ms increasing voltage ramp from –100 mV to +100 mV was applied from a holding potential of 0 mV. The interval between sweeps was 2 seconds, and data were sampled at 5 kHz. […] TRPM4 currents were activated by 500 μM CaCl2 and deactivated by 10 mM EGTA, both added to the intracellular solution. Ca^2+ activation curves were fitted using a likelihood maximization algorithm to estimate the parameters for the sigmoidal fitting curves y-maximum, slope and midpoint as part of the R package sicegar (V0.2.4).

[3] = test system: broad panel of receptors, enzymes, and ion channels; experiment: SafetyScreen44 in vitro pharmacology panel (whole panel); format: binding; conditions: SafetyScreen44, 5 μM; active = inhibition above 50%
Description: We next used in vitro assays to test absorption, distribution, metabolism, excretion and toxicity (ADMET) parameters for selected compounds. We assessed compound absorption using parallel artificial membrane permeability (PAMPA) and Caco-2 cell permeability assays (cut-off criterion >2 × 10^−6 cm s^−1). Compound toxicity was evaluated by measuring inhibition of cytochrome P450 enzymes (CYP), the potassium channel human Ether-a-go-go Related Gene (hERG), and TRPM5, with all parameters meeting acceptable criteria. […] To assess potential off-target activity of our compounds that could be relevant for safety in humans, we conducted comprehensive in vitro pharmacology using the commercially available and widely used SafetyScreen44 interaction panel[60] covering eight protein families.
For in vitro pharmacological profiling and determination of off target effects compound were screened at a 5 μM in duplicate for their potential to bind to a broad panel of receptors, enzymes, and ion channels on a commercially available platform (Safetyscreen 44 Panel; Eurofins Cerep, Le Bois l'Evêque, B.P. 30001, 86 600 Celle l'Evescault, France), Study ID FR095-0009609).

mouse TRPM4 = biological target: T2, mouse TRPM4 (Mus musculus, UniProt Q7TN37); experiment: Inside-out patch clamp, mouse TRPM4; format: cell-based; conditions: inside-out patch clamp configuration
T2 construct: Human TRPM4 (UniProtKB: Q8TD43-1) and mouse Trpm4 (UniProtKB: Q7TN37-1) were amplified via PCR; eGFP (C); expressed in transfected cells

[4] = biological target: hsTRPM4 L907A, S924A and L907A/S924A mutants (Homo sapiens, UniProt Q8TD43, L907A/S924A); experiment: Whole-cell patch clamp of wild-type and binding-site mutant hsTRPM4; conditions: whole-cell voltage clamp
Description: (§1) Initially, we assessed the basic properties of the hsTRPM4 mutants using whole-cell patch clamp electrophysiology.

[5] = test system: hsTRPM4 L907A, S924A and L907A/S924A mutants; experiment: as above; conditions: whole-cell voltage clamp, HEK293T
Description: as §1

human TRPM4 [6] = biological target: T1, human TRPM4; experiment: QPatch automated patch clamp on TRPM4-expressing HEK293 cells; format: cell-based; conditions: hsTRPM4-expressing HEK293 cells
Description: QPatchHTX, an automated electrophysiology platform, was used in single hole mode. One day before use human TRPM4- or TRPM5-expressing HEK293 cells were seeded in a T75 flask at a density of 53k cells per cm^2 and at passages < 23. […] The extracellular solution was (in mM): CaCl2 (7), MgCl2 (2), KCl (5), HEPES (10), NaCl (70), NMDG (70); pH 7.4 with NaOH. The intracellular solution was (in mM): HEPES (10), NMDG (100), NaCl (50), EGTA (20), MgCl2 (1), CaCl2 (21); pH 7.2 with HCl. […] This protocol was repeated every 7 seconds. […] FFA was used as reference compound and applied cumulatively with each concentration incubating at a minimum of 20 voltage protocol runs (140 seconds) with the current after addition of FFA being calculated as full block. […] Each compound was measured at least 3 time independently.

[7] = test system: primary mouse neuronal cultures; experiment: Glutamate-induced excitotoxicity assay (RealTime-Glo viability); format: cell-based; conditions: 5 μM
Description: To evaluate the in vitro efficacy of our developed compounds, we employed primary mouse neuronal cultures (PNCs) and conducted glutamate-induced excitotoxicity assays. Cultures were pre-treated with respective Series 1 and Series 3 compounds before glutamate exposure, and neuronal viability was assessed 15 h post-stimulation with glutamate.
Figure 3 Neuroprotective in vitro evaluation and in vivo pharmacokinetics (A) In vitro evaluation of compound activity on glutamate-induced excitotoxicity in mature primary neuronal cultures. Neuronal cultures were treated with 5 μM of the specified compound or vehicle control 5 h prior to glutamate stimulation, assessing compound rescue activity and toxicity relative to minimal (Vehicle +0 μM Glu) and maximal (Vehicle +50 μM Glu) excitotoxicity. Time course of a representative compound with virtual endpoint at 15 h post stimulation and assay window definition (left). Toxicity of compound treated cultures with and without glutamate stimulation (right). Data are represented as mean and 95% confidence interval; n ≥ 4; ∗p < 0.05, ∗∗p < 0.01, ∗∗∗p < 0.001; One-sample Wilcoxon signed-rank test. […] Mitochondrial membrane potential was measured by the mean fluorescence intensity of TMRE normalized to MitoTracker. Data are represented as mean ± SEM; n = 5; paired t-test. (C) In vivo pharmacokinetics of four selected compounds. Time course of compound concentration in the brain, heart, and plasma after a single dose via intraperitoneal (i.p.) or intravenous (i.v.) application. Data are represented as mean ± SEM. Half-life estimates by non-compartmental analysis are shown as vertical line and IC50 value as dashed horizontal line. (D) Compound concentration in the brain relative to respective IC50 concentrations after a single dose via intra-peritoneal or intra-venous routes. Also see Figure S6.
Excitotoxicity assays were performed using primary mouse neuronal cultures between 14 and 17 days in vitro (DIV). Cell viability was measured using RealTime-Glo MT Cell Viability Assay (Promega, catalog no. G9711) according to the manufacture protocol. Compounds were co-administered with RealTime-Glo reagents, and luciferase measurements were conducted using the Tecan-Spark M10 microplate reader with environmental control set to 37°C and 5% CO2. Neuronal cultures were stimulated with either glutamate or vehicle five hours after compound application and monitored for an additional 20 hours. To adjust for inter-well variability, arbitrary light units were normalized to a steady signal prior to glutamate addition for each well. Toxicity was calculated relative to the minimal cell viability at 15 hours post glutamate stimulation and cell viability of the PBS vehicle control.

[8] = test system: primary mouse neuronal cultures; experiment: TMRE assay of mitochondrial membrane potential after glutamate; format: cell-based; conditions: 50 μM glutamate for 2 h, compound 30 min before
Description: We assessed its ability to inhibit the deterioration of mitochondrial membrane potential (ΔΨm) in response to glutamate-induced excitotoxicity. The ratio between the ΔΨm-dependent dye tetramethylrhodamine ethyl ester (TMRE) and the mitochondrial dye MitoTracker was quantified for this purpose.
Subsequently 50 μM glutamate was applied for in total 2 hours. Then, 20 nM TMRE dye (Abcam, ab113852), 500 nM MitoTracker dye (ThermoFisher, M7512), and 1 μM Hoechst 33342 were added after 1.5 hours glutamate stimulation for 30 minutes. Afterwards cells were washed two times in pre-warmed medium and were imaged immediately in preconditioned medium using a confocal microscope (Zeiss, LSM700) with 20-fold magnification and controlled atmosphere conditions (37°C, 5% CO2). Imaging time was less than 10 minutes per condition. We quantified the total MFI of the MitoTracker and TMRE dyes per cell. At least 50 cells per condition were quantified and the mean ratios of TMRE to Mitotracker per independent experiments were reported.

T1 sequence (Q8TD43 whole entry): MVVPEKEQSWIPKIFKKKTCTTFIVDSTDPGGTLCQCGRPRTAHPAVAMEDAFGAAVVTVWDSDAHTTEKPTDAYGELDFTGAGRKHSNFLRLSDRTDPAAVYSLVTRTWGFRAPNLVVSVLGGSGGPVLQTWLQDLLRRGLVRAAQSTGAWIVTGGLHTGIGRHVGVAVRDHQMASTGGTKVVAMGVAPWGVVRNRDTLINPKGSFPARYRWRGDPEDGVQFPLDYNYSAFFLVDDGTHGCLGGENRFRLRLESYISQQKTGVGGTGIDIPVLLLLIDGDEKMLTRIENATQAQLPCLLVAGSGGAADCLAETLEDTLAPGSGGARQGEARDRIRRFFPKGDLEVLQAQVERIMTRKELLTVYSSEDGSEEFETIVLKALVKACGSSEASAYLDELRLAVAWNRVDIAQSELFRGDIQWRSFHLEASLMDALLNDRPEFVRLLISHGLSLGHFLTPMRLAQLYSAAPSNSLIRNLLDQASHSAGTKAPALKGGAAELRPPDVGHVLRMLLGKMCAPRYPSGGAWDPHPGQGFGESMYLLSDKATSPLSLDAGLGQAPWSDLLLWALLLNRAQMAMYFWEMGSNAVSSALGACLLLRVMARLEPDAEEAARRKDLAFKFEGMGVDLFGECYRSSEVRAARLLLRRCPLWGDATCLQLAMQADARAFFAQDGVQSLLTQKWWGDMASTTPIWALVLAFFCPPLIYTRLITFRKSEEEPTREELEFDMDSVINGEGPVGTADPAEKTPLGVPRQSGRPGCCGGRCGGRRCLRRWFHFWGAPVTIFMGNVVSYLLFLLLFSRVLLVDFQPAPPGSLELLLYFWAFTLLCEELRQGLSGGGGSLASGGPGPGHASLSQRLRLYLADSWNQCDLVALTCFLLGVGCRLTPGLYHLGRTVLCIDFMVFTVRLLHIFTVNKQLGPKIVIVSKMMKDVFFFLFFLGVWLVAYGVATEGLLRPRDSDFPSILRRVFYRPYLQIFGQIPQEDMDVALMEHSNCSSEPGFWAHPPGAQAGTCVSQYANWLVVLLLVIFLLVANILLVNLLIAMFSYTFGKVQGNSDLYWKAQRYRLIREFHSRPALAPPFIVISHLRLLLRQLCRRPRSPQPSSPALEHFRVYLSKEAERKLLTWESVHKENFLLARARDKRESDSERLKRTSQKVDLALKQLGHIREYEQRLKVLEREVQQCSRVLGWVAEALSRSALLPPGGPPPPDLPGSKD
T2 sequence (Q7TN37 whole entry): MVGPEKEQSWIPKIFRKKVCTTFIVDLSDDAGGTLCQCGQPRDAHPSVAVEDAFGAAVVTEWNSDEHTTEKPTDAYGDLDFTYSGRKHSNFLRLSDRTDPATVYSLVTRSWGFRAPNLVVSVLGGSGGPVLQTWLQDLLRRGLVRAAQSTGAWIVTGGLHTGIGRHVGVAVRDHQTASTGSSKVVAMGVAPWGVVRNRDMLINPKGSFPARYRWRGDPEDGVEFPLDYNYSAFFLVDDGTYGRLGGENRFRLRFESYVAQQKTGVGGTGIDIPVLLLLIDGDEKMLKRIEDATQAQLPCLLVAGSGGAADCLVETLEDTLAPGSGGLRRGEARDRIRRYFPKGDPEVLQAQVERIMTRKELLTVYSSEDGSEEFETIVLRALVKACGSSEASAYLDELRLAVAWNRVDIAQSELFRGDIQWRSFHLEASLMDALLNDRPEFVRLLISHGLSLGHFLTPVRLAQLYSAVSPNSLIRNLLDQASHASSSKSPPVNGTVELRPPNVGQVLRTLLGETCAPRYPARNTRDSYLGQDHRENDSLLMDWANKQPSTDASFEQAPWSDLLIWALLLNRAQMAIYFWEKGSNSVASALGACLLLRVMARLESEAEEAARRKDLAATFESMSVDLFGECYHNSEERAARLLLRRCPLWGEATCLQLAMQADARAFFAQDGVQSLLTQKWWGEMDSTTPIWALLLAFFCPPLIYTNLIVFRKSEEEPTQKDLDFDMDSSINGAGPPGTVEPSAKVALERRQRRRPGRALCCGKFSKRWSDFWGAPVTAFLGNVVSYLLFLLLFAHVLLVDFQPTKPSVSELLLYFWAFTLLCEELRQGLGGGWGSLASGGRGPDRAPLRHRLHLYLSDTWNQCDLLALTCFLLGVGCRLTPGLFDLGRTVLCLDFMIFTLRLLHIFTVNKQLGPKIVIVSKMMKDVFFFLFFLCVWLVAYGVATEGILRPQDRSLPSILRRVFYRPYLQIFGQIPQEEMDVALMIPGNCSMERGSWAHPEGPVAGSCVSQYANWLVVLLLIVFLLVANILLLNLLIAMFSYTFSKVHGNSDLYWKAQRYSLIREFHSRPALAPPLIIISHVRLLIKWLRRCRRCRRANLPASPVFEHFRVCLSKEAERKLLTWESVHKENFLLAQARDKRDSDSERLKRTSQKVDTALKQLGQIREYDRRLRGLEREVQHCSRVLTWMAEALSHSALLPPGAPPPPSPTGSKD
hsTRPM4 L907A, S924A and L907A/S924A mutants (Homo sapiens, UniProt Q8TD43, L907A/S924A), sequence (Q8TD43 whole entry L907A/S924A): as the sequence (Q8TD43 whole entry) above, with L907A, S924A counted along it

Row | half-life ([1]; brain, ip, read-out: Brain half-life (converted)) | half-life ([1]; brain, iv, read-out: Brain half-life (converted)) | half-life ([1]; heart, ip, read-out: Heart half-life (converted)) | half-life ([1]; heart, iv, read-out: Heart half-life (converted)) | half-life ([1]; plasma, ip, read-out: Plasma half-life (converted)) | half-life ([1]; plasma, iv, read-out: Plasma half-life (converted)) | SMILES | Activity on human TRPM4 (human TRPM4 [2]) | Off-target binding in in vitro pharmacology panel [3] | Activity on mouse TRPM4 (mouse TRPM4) | Affinity in the L907A/S924A double mutant [4] | Current inhibition of hsTRPM4 L907A and S924A mutants versus wildtype [5] | IC50 (human TRPM4 [6]) | Protective effect in excitotoxicity assay ([7]; glutamate-stimulated primary mouse neuronal cultures) | Compound toxicity in neuronal cultures ([7]; primary mouse neuronal cultures) | Mitochondrial membrane potential (ΔΨm), TMRE / MitoTracker ratio [8]
1 | 1.4 h | 0.3 h | 1.1 h | 1.3 h | 0.9 h | 0.5 h | O=C(CCc1ccccc1)Nc1ccc(Br)cc1C(=O)O [CMP233] | highly effective in both species; also recorded: active on both species | no off-target binding | highly effective in both species; also recorded: active on both species | completely abolished | significantly reduced current inhibition in at least one hsTRPM4 mutant variant |  |  |  | 
2 |  |  |  |  |  |  | COc1cccc(-c2ccccc2NCc2nc3ccccc3o2)c1 [CMP312] | almost completely blocked |  | reduced activity on mouse TRPM4 compared to human TRPM4; also recorded: significantly less effective on mouse TRPM4 | completely abolished | significantly reduced current inhibition in at least one hsTRPM4 mutant variant | 4.87 µM | potent protective effects | non-toxicity | mitigated the glutamate-induced decrease in ΔΨm
